Read-outs that look alike come from different tables or passages of the source.
Assays:
TICA0010 Fab = assay: HTRF competition binding selectivity assay, TICA0010 His-Fab; parameters: species or system human; conditions: first series (Table 2), not DMSO normalised
Procedure: (§1) Total Binding control wells were set up which contained all of the assay components above except that 5 ul assay buffer was added in place of the test selectivity compound addition. Negative Binding control wells were set up which contained all of the assay components included in the Total Binding control wells except that 5ul assay buffer was added in place of the His-Fab addition. Test compound serial titrations were either ½ or ⅓ depending on the particular experiment and top final assay compound concentrations were optimized on a compound specific basis. The concentration of biotinylated ticagrelor and His-Fab was optimized on a Fab specific basis in separate experiments. For the four Fabs investigated at the end of the lead isolation phase (TICA0010, TICA0049, TICA0053 and TICA0072) the final assay reagent concentrations used are set out in Table 1 below:
(§2) For the two Fabs investigated at the end of the lead optimization phase (TICA0162 and TICA0212) the final assay reagent concentrations used were 5nM biotinylated ticagrelor and 1 nM His Fab in both cases. […] In order to enable subsequent normalization of data to correct for any such vehicle related effects parallel titrations of DMSO alone were included in most experiments in which the final assay DMSO concentrations mirrored those of the test compound serial dilutions. At the end of the set up procedure that assay was incubated for 3hrs at RT before being read on an Envision plate reader using a standard read protocol.
(§3) The negative ratio value used in the calculation of % Delta F was derived from the Negative Binding control wells. % Delta F values were then used to calculate % Specific Binding values according to the equation below: Specific Binding (%)={(Sample Delta F−Negative Binding Delta F)/(Total Binding Delta F−Negative Binding Delta F)}×100
(§4) For standard calculations of % Specific Binding Total Binding Delta F was taken from Total Binding control wells which contained all of the aforementioned components of the assay but without inclusion of any competing test compound.
(§5) In those experiments where DMSO normalization was applied DMSO normalised % Specific Binding was calculated essentially according to the equation above except that in this case Total Binding Delta F was taken from wells containing all of the components in the Total Binding control wells as well as DMSO at a concentration equivalent to that in the relevant sample well.

TICA0049 Fab = assay: HTRF competition binding selectivity assay, TICA0049 His-Fab; parameters: species or system human
Procedure: as §1, §2, §3, §4, §5
(§6) In a second series of experiments further selectivity data was generated for TICA0049 and TICA0072 Fabs in which a subset of four of the twelve compounds listed in FIG. 4 were retested along with ticagrelor, TAM and TIM and several adenosine related compounds. Here, in a refinement to the earlier investigations in Table 2, experiments were designed in order to enable normalisation of percent specific binding values to correct for any non-specific vehicle related effects due to DMSO. Example plotted data from this second series of experiments is shown in FIG. 5A-F along with tabulated IC50 values in Table 3.

TICA0053 Fab = assay: HTRF competition binding selectivity assay, TICA0053 His-Fab; parameters: species or system human; conditions: first series (Table 2), not DMSO normalised
Procedure: as §1, §2, §3, §4, §5

TICA0072 Fab = assay: HTRF competition binding selectivity assay, TICA0072 His-Fab; parameters: species or system human; conditions: second series (Table 3), DMSO normalised
Procedure: as §1, §2, §3, §4, §5, §6

[1] = human, in vivo; cited from earlier work
TICA0162 Fab = assay: HTRF competition binding selectivity assay, TICA0162 His-Fab; parameters: species or system human; conditions: Table 7, DMSO normalised; 5 nM biotinylated ticagrelor, 1 nM His Fab; read-out: IC50 (uM) for inhibition of biotinylated ticagrelor binding to TICA0162 Fab
Procedure: as §1
as §2, with “protocol. […]” for “protocol.”
as §5

[2] = biological target: TICA0159 IgG binding to biotinylated ticagrelor; assay: Second generation HTRF epitope competition assay; conditions: for IC50: Fab, 16 nM TICA0159 IgG, 1 nM biotinylated ticagrelor; for Fold Improved: IC50 relative to parent TICA0072 Fab
Procedure: Purified parent TICA0072 (scFv or Fab) was used as a benchmark in all experiments such that improvements in IC50 measured with optimized variants (scFv or Fab) could be expressed as fold improvements over parent TICA0072. Total Binding Control Wells contained all assay components except that 5 ul assay buffer was added in place of the purified scFv or Fab sample. Negative Binding control wells contained all of the components of the Total Binding control wells except that 5 ul of assay buffer was added in place of the TICA0072 IgG.
In both single point HTS and multipoint IC50 profiling versions of the assay. plates were incubated for 3 hrs at RT before being read on an Envision plate reader using a standard HTRF read protocol in which samples are excited at 337 nm and time resolved fluorescence emission is measured at both 620 nm and 665 nM.
Raw 665 nm and 620 nm counts were used to calculate Delta F (%) and % Specific Binding according to the equations described earlier in Assays 1 and 4, respectively. For multipoint secondary profiling experiments IC50 values were determined using Graphpad Prism software using sigmoidal dose response (variable slope) curve fitting (4 parameter logistic equation).
This assay was used only in multipoint IC50 profiling format (as opposed to HTS format) and was performed essentially identically to the method given in Assay 5 (above) for multipoint IC50 profiling of purified Fab variants in the parent TICA0072 IgG based epitope competition assay. The only difference being that TICA0159 IgG was used in place of TICA0072 IgG at the appropriate point in the assay set up but at the same 16nM final assay concentration. In all other respects this assay was performed exactly as described above in the multipoint secondary profiling version for purified Fab.

[3] = Equilibrium affinity by KinExA3200, ticagrelor; assay type: binding; conditions: modifications in VL CDR3 or VH CDR3 only
Procedure: The affinity of anti-ticagrelor/TAM Fabs generated in Example 5 was determined using the KinExA3200. For the KinExA affinity measurement, beads (600 mg Azlactone beads) were first prepared by reacting them overnight with 1 mg streptavidin in 50 mM NaHCO3. Following blocking with 2 changes of Tris buffer (1M Tris pH 8.7, 10 mg/mL BSA) the streptavidin coated beads were resuspended in a total volume of 8 mL. Beads (1.33 mL, equivalent to 100 mg original dry Azlactone beads) were washed completely with PBS, then allowed to bind to approximately 2.5 μg biotin-ticagrelor in 1 mL PBS for 10 minutes with occasional agitation. […]
All assays were performed at room temperature. […] Bound antibody was then detected using DyLight649 labelled mouse anti-human Heavy and Light chain antibody. Sample volume (300-1300 μL) and injection time (90-120 s) varied with concentration, and 2 -3 reads were varied out per sample. The data were analysed using the KinExA n-Curve Analysis software. Using the Constant Partner analysis the equilibrium KD for the anti-ticagrelor Fab antibodies was determined.
As in the prior Example, Fabs were allowed to equilibrate at room temperature in the presence of either unmodified ticagrelor or TAM at concentrations from 20-fold excess. […] Bound antibody was then detected using a DyLight649 labelled mouse anti-human Heavy and Light chain detection antibody. […]

[4] = first series (Table 2), not DMSO normalised
[5] = first series (Table 2), not DMSO normalised, read-out: IC50 (uM) for inhibition of biotinylated ticagrelor binding to TICA0049 his-Fab
[6] = second series (Table 3), DMSO normalised
[7] = second series (Table 3), DMSO normalised, read-out: IC50 in competition binding selectivity studies, TICA0049

Molecule: CSCCNc1nc(SCCC(F)(F)F)nc2c1ncn2[C@@H]1O[C@H](COP(=O)(O)OP(=O)(O)C(Cl)(Cl)P(=O)(O)O)[C@@H](O)[C@H]1O [Cangrelor]
- IC50 (uM) for inhibition of biotinylated ticagrelor binding to TICA00l0 his-Fab (TICA0010 Fab): competitive inhibition
- IC50 (TICA0010 Fab; read-out: IC50 (uM) for inhibition of biotinylated ticagrelor binding to TICA00l0 his-Fab): 102 µM
- IC50 (uM) for inhibition of biotinylated ticagrelor binding to TICA0049 his-Fab (TICA0049 Fab; [4]): competitive inhibition
- IC50 (TICA0049 Fab; [5]): 208 µM
- IC50 in competition binding selectivity studies, TICA0049 (TICA0049 Fab; [6]): significant inhibition
- IC50 (TICA0049 Fab; [7]): 188 µM
- IC50 (uM) for inhibition of biotinylated ticagrelor binding to TICA0053 his-Fab (TICA0053 Fab): competitive inhibition
- IC50 (TICA0053 Fab; read-out: IC50 (uM) for inhibition of biotinylated ticagrelor binding to TICA0053 his-Fab): 17.5 µM

Molecule: CC(=O)NC[C@H]1CN(c2ccc(N3CCOCC3)c(F)c2)C(=O)O1 [Linezolid]
- IC50 (uM) for inhibition of biotinylated ticagrelor binding to TICA0049 his-Fab (TICA0049 Fab; [4]): partial competitive inhibition
- IC50 (TICA0049 Fab; [5]): 467 µM
- IC50 in competition binding selectivity studies, TICA0049 (TICA0049 Fab; [6]): weak inhibition
- IC50 (TICA0049 Fab; [7]): 902 µM

Molecule: Nc1ncnc2c1ncn2[C@@H]1O[C@H](COP(=O)(O)OP(=O)(O)O)[C@@H](O)[C@H]1O [ADP, adenosine diphosphate]
- IC50 in competition binding selectivity studies, TICA0049 (TICA0049 Fab; [6]): trace of inhibition
- IC50 in competition binding selectivity studies, TICA0072 (TICA0072 Fab): trace of inhibition

Molecule: Nc1ncnc2c1ncn2[C@@H]1O[C@H](COP(=O)(O)OP(=O)(O)OP(=O)(O)O)[C@@H](O)[C@H]1O [ATP, adenosine triphosphate]
- IC50 in competition binding selectivity studies, TICA0049 (TICA0049 Fab; [6]): trace of inhibition
- IC50 in competition binding selectivity studies, TICA0072 (TICA0072 Fab): trace of inhibition

Molecule: Nc1ncnc2c1ncn2[C@@H]1O[C@H](CO)[C@@H](O)[C@H]1O [Adenosine]
- IC50 in competition binding selectivity studies, TICA0049 (TICA0049 Fab; [6]): trace of inhibition
- IC50 in competition binding selectivity studies, TICA0072 (TICA0072 Fab): trace of inhibition

Molecule: CCCC(=O)Nc1ncnc2c1ncn2[C@@H]1O[C@@H]2COP(=O)(O)O[C@H]2[C@H]1OC(=O)CCC [Bucladesine]
- IC50 in competition binding selectivity studies, TICA0049 (TICA0049 Fab; [6]): weak inhibition
- IC50 (TICA0049 Fab; [7]): 865 µM

Molecule: CCCSc1nc(N)c2nnn(C3CC(OCCO)C(O)C3O)c2n1 (centres unmarked) [TIM]
- detectability in circulation [1]: undetectable after 8 hours
- fraction of the parent ticagrelor [1]: < 10%

Molecule: NS(=O)(=O)c1cc2c(cc1Cl)NC(C1CC3C=CC1C3)NS2(=O)=O (centres unmarked) [Cyclothiazide]
- IC50 (TICA0162 Fab): > 1000 µM

B1: TICA0152: VL CDR3 variant of TICA0072; VH SEQ ID NO:62, VL SEQ ID NO:67 (antibody, listed as Homo sapiens, V domains shown)
VH: QVQLQESGAEVKKPGSSVRVSCKASGGTFDSYSIHWVRQAPGQGLEWMGGIIPAFGTLSSAQDFQARVTISADKSTSTAYMELSGLRSEDTAVYYCARGSHLYDFWSASHPPNDALAIWGQGTLVTVSS
VL: QSVVTQPPSVSAAPGQKVTISCSGSNSDIGNNYVSWYQQLPGTAPKLLIYDNNKRPSGIPDRFSGSKSGTSATLAITGLQAGDEADYYCGTWLYDRAVGLFGGGTKVTVL
- IC50 [2]: 0.0735 µM
- Fold Improved [2]: 23.3
- fold improvement over TICA0072 [3]: 200 fold

B2: TICA0162: VH CDR3 variant of TICA0072; VH SEQ ID NO:52, VL SEQ ID NO:57 (antibody, listed as Homo sapiens, V domains shown)
VH: QVQLQESGAEVKKPGSSVRVSCKASGGTFDSYSIHWVRQAPGQGLEWMGGIIPAFGTLSSAQDFQARVTISADKSTSTAYMELSGLRSEDTAVYYCARGSFDYYFWSASHPPNDALAIWGQGTLVTVSS
VL: QSVVTQPPSVSAAPGQKVTISCSGSNSDIGNNYVSWYQQLPGTAPKLLIYDNNKRPSGIPDRFSGSKSGTSATLAITGLQAGDEADYYCGTWDISLSAGLFGGGTKVTVL
- IC50 [2]: 0.0163 µM
- Fold Improved [2]: 105.2
- fold improvement over TICA0072 [3]: 50 fold

— patent US12391768B2, “Antibodies to ticagrelor and methods of use” (MEDIMMUNE LIMITED, priority 2014, dated 2025)
